Values belong to the compound of their own block, whether it stands above or below them.
Biological target: T1, Bsu DNA polymerase large fragment / primed template nucleic acid (Bacillus subtilis, UniProt O34996)
T1 construct: 350 U/ml Bsu DNA polymerase large fragment
T1 sequence (O34996 297-880 limits assumed): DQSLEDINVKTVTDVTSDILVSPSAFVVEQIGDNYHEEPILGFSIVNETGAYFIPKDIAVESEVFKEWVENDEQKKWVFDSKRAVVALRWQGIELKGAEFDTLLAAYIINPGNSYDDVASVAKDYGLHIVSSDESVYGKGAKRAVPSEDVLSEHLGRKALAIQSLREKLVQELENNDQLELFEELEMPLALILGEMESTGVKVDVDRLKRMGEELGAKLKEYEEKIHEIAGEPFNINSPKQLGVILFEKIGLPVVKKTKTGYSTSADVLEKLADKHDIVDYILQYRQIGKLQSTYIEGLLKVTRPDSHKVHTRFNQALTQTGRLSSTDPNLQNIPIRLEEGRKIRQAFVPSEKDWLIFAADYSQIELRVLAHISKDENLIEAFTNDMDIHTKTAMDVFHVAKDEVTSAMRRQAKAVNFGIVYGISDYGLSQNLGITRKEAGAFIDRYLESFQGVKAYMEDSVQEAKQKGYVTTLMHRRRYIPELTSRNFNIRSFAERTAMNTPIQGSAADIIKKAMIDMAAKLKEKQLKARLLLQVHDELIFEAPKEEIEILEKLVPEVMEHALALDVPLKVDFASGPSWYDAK
Experiment: Biolayer interferometry of polymerase binding to immobilized primed template with cognate or non-cognate nucleotide, salt titration (Example 19)
Conditions: for Ternary Complex Signal (Δλ, nm): dCTP (cognate); for Binary Complex Signal (Δλ, nm): dGTP (non-cognate)
Text: A FORTEBIO® (Menlo Park, Calif.) OCTET® instrument employing biolayer interferometry to measure binding reactions at the surface of a fiber optic tip was used in a multiwell plate format to investigate differential stability of binary and ternary complexes. Template strands biotinylated at their 5′-ends were used to immobilize the primed template nucleic acid onto fiber optic tips functionalized with streptavidin (SA) according to standard procedures. […] Tips were first equilibrated in a Tris-buffered solution containing 30 mM Tris-HCl (pH 8.0), and 0.1 mM EDTA before commencing the cycling protocol. Independent binding reactions for the two test nucleotides (i.e., cognate and non-cognate nucleotides) were carried out in the presence of concentrations of NaCl, KCl, or potassium glutamate that varied from 50 mM to 500 mM. […] In all instances, the reaction mixture used during the examination step contained Tris-HCl (pH 8.0), 0.01% Tween-20, 100 μg/ml BSA, 2 mM NiSO4, 350 U/ml Bsu DNA polymerase large fragment; and one of the nucleotides at a concentration of 100 μM (dCTP was used as a cognate nucleotide, and dGTP was used as a non-cognate nucleotide). Following each examination step, tips were exposed to a buffer containing 30 mM Tris-HCl (pH 8.0), 500 mM KCl, 2 mM EDTA and 0.05% Tween-20 for 20 seconds to strip enzyme complexes from the primed template nucleic acid. The stripping step was followed by a 15 second exposure to examination buffer without enzyme, dNTP or divalent cations to regenerate tips for the next cycle of examination. When using a single contacting step to effect binding of polymerase and nucleotide to the primed template nucleic acid, the binding step was 45 seconds long, with binding interactions being monitored continuously. This was accomplished by contacting the primed template nucleic acid with a single solution that included the polymerase and test nucleotide. Results from interferometry monitoring were analyzed to identify formation of ternary complexes (i.e., identifying cognate nucleotide) or binary complexes (i.e., identifying non-cognate nucleotide).

SMILES: [Cl-].[Na+] [NaCl]
- Fold Enhancement (Ternary/Binary) (NaCl 50 mM): 1.07
- Ternary Complex Signal (Δλ, nm) (NaCl 50 mM): 3.33 nm
- Binary Complex Signal (Δλ, nm) (NaCl 50 mM): 3.11 nm
- Fold Enhancement (Ternary/Binary) (NaCl 75 mM): 1.10
- Ternary Complex Signal (Δλ, nm) (NaCl 75 mM): 2.77 nm
- Binary Complex Signal (Δλ, nm) (NaCl 75 mM): 2.51 nm
- Fold Enhancement (Ternary/Binary) (NaCl 100 mM): 1.07
- Ternary Complex Signal (Δλ, nm) (NaCl 100 mM): 2.34 nm
- Binary Complex Signal (Δλ, nm) (NaCl 100 mM): 2.17 nm
- Fold Enhancement (Ternary/Binary) (NaCl 125 mM): 1.04
- Ternary Complex Signal (Δλ, nm) (NaCl 125 mM): 1.99 nm
- Binary Complex Signal (Δλ, nm) (NaCl 125 mM): 1.91 nm
- Fold Enhancement (Ternary/Binary) (NaCl 150 mM): 1.04
- Ternary Complex Signal (Δλ, nm) (NaCl 150 mM): 1.73 nm
- Binary Complex Signal (Δλ, nm) (NaCl 150 mM): 1.67 nm
- Fold Enhancement (Ternary/Binary) (NaCl 175 mM): 1.11
- Ternary Complex Signal (Δλ, nm) (NaCl 175 mM): 1.51 nm
- Binary Complex Signal (Δλ, nm) (NaCl 175 mM): 1.36 nm
- Fold Enhancement (Ternary/Binary) (NaCl 200 mM): 1.19
- Ternary Complex Signal (Δλ, nm) (NaCl 200 mM): 1.36 nm
- Binary Complex Signal (Δλ, nm) (NaCl 200 mM): 1.15 nm
- Fold Enhancement (Ternary/Binary) (NaCl 225 mM): 1.27
- Ternary Complex Signal (Δλ, nm) (NaCl 225 mM): 1.28 nm
- Binary Complex Signal (Δλ, nm) (NaCl 225 mM): 1.01 nm
- Fold Enhancement (Ternary/Binary) (NaCl 250 mM): 1.47
- Ternary Complex Signal (Δλ, nm) (NaCl 250 mM): 1.18 nm
- Binary Complex Signal (Δλ, nm) (NaCl 250 mM): 0.80 nm
- Fold Enhancement (Ternary/Binary) (NaCl 275 mM): 1.65
- Ternary Complex Signal (Δλ, nm) (NaCl 275 mM): 1.11 nm
- Binary Complex Signal (Δλ, nm) (NaCl 275 mM): 0.67 nm
- Fold Enhancement (Ternary/Binary) (NaCl 300 mM): 1.86
- Ternary Complex Signal (Δλ, nm) (NaCl 300 mM): 0.99 nm
- Binary Complex Signal (Δλ, nm) (NaCl 300 mM): 0.53 nm
- Fold Enhancement (Ternary/Binary) (NaCl 325 mM): 2.76
- Ternary Complex Signal (Δλ, nm) (NaCl 325 mM): 0.93 nm
- Binary Complex Signal (Δλ, nm) (NaCl 325 mM): 0.34 nm
- Fold Enhancement (Ternary/Binary) (NaCl 350 mM): 2.94
- Ternary Complex Signal (Δλ, nm) (NaCl 350 mM): 0.74 nm
- Binary Complex Signal (Δλ, nm) (NaCl 350 mM): 0.25 nm
- Fold Enhancement (Ternary/Binary) (NaCl 375 mM): 3.62
- Ternary Complex Signal (Δλ, nm) (NaCl 375 mM): 0.61 nm
- Binary Complex Signal (Δλ, nm) (NaCl 375 mM): 0.17 nm
- Ternary Complex Signal (Δλ, nm) (NaCl 400 mM): 0.48 nm
- Binary Complex Signal (Δλ, nm) (NaCl 400 mM): 0.08 nm
- Fold Enhancement (Ternary/Binary) (NaCl 425 mM): 5.16
- Ternary Complex Signal (Δλ, nm) (NaCl 425 mM): 0.38 nm
- Binary Complex Signal (Δλ, nm) (NaCl 425 mM): 0.07 nm
- Fold Enhancement (Ternary/Binary) (NaCl 450 mM): 6.65
- Ternary Complex Signal (Δλ, nm) (NaCl 450 mM): 0.26 nm
- Binary Complex Signal (Δλ, nm) (NaCl 450 mM): 0.04 nm
- Fold Enhancement (Ternary/Binary) (NaCl 475 mM): 10.28
- Ternary Complex Signal (Δλ, nm) (NaCl 475 mM): 0.19 nm
- Binary Complex Signal (Δλ, nm) (NaCl 475 mM): 0.02 nm
- Ternary Complex Signal (Δλ, nm) (NaCl 500 mM): 0.21 nm
- Binary Complex Signal (Δλ, nm) (NaCl 500 mM): 0.00 nm

- Fold Enhancement (Ternary/Binary) (Potassium glutamate 50 mM): 1.05
- Ternary Complex Signal (Δλ, nm) (Potassium glutamate 50 mM): 1.67 nm
- Binary Complex Signal (Δλ, nm) (Potassium glutamate 50 mM): 1.59 nm
- Fold Enhancement (Ternary/Binary) (Potassium glutamate 75 mM): 1.01
- Ternary Complex Signal (Δλ, nm) (Potassium glutamate 75 mM): 1.69 nm
- Binary Complex Signal (Δλ, nm) (Potassium glutamate 75 mM): 1.68 nm
- Fold Enhancement (Ternary/Binary) (Potassium glutamate 100 mM): 1.02
- Ternary Complex Signal (Δλ, nm) (Potassium glutamate 100 mM): 1.67 nm
- Binary Complex Signal (Δλ, nm) (Potassium glutamate 100 mM): 1.64 nm
- Fold Enhancement (Ternary/Binary) (Potassium glutamate 125 mM): 1.05
- Ternary Complex Signal (Δλ, nm) (Potassium glutamate 125 mM): 1.65 nm
- Binary Complex Signal (Δλ, nm) (Potassium glutamate 125 mM): 1.57 nm
- Fold Enhancement (Ternary/Binary) (Potassium glutamate 150 mM): 1.07
- Ternary Complex Signal (Δλ, nm) (Potassium glutamate 150 mM): 1.62 nm
- Binary Complex Signal (Δλ, nm) (Potassium glutamate 150 mM): 1.51 nm
- Fold Enhancement (Ternary/Binary) (Potassium glutamate 175 mM): 1.08
- Ternary Complex Signal (Δλ, nm) (Potassium glutamate 175 mM): 1.56 nm
- Binary Complex Signal (Δλ, nm) (Potassium glutamate 175 mM): 1.44 nm
- Fold Enhancement (Ternary/Binary) (Potassium glutamate 200 mM): 1.07
- Ternary Complex Signal (Δλ, nm) (Potassium glutamate 200 mM): 1.51 nm
- Binary Complex Signal (Δλ, nm) (Potassium glutamate 200 mM): 1.40 nm
- Fold Enhancement (Ternary/Binary) (Potassium glutamate 225 mM): 1.11
- Ternary Complex Signal (Δλ, nm) (Potassium glutamate 225 mM): 1.53 nm
- Binary Complex Signal (Δλ, nm) (Potassium glutamate 225 mM): 1.38 nm
- Fold Enhancement (Ternary/Binary) (Potassium glutamate 250 mM): 1.17
- Ternary Complex Signal (Δλ, nm) (Potassium glutamate 250 mM): 1.48 nm
- Binary Complex Signal (Δλ, nm) (Potassium glutamate 250 mM): 1.27 nm
- Fold Enhancement (Ternary/Binary) (Potassium glutamate 275 mM): 1.22
- Ternary Complex Signal (Δλ, nm) (Potassium glutamate 275 mM): 1.52 nm
- Binary Complex Signal (Δλ, nm) (Potassium glutamate 275 mM): 1.24 nm
- Fold Enhancement (Ternary/Binary) (Potassium glutamate 300 mM): 1.23
- Ternary Complex Signal (Δλ, nm) (Potassium glutamate 300 mM): 1.50 nm
- Binary Complex Signal (Δλ, nm) (Potassium glutamate 300 mM): 1.23 nm
- Fold Enhancement (Ternary/Binary) (Potassium glutamate 325 mM): 1.27
- Ternary Complex Signal (Δλ, nm) (Potassium glutamate 325 mM): 1.46 nm
- Binary Complex Signal (Δλ, nm) (Potassium glutamate 325 mM): 1.15 nm
- Fold Enhancement (Ternary/Binary) (Potassium glutamate 350 mM): 1.30
- Ternary Complex Signal (Δλ, nm) (Potassium glutamate 350 mM): 1.39 nm
- Binary Complex Signal (Δλ, nm) (Potassium glutamate 350 mM): 1.07 nm
- Fold Enhancement (Ternary/Binary) (Potassium glutamate 375 mM): 1.32
- Ternary Complex Signal (Δλ, nm) (Potassium glutamate 375 mM): 1.36 nm
- Binary Complex Signal (Δλ, nm) (Potassium glutamate 375 mM): 1.03 nm
- Fold Enhancement (Ternary/Binary) (Potassium glutamate 400 mM): 1.36
- Ternary Complex Signal (Δλ, nm) (Potassium glutamate 400 mM): 1.36 nm
- Binary Complex Signal (Δλ, nm) (Potassium glutamate 400 mM): 0.99 nm
- Fold Enhancement (Ternary/Binary) (Potassium glutamate 425 mM): 1.46
- Ternary Complex Signal (Δλ, nm) (Potassium glutamate 425 mM): 1.33 nm
- Binary Complex Signal (Δλ, nm) (Potassium glutamate 425 mM): 0.91 nm
- Fold Enhancement (Ternary/Binary) (Potassium glutamate 450 mM): 1.52
- Ternary Complex Signal (Δλ, nm) (Potassium glutamate 450 mM): 1.31 nm
- Binary Complex Signal (Δλ, nm) (Potassium glutamate 450 mM): 0.86 nm
- Fold Enhancement (Ternary/Binary) (Potassium glutamate 475 mM): 1.56
- Ternary Complex Signal (Δλ, nm) (Potassium glutamate 475 mM): 1.28 nm
- Binary Complex Signal (Δλ, nm) (Potassium glutamate 475 mM): 0.82 nm
- Fold Enhancement (Ternary/Binary) (Potassium glutamate 500 mM): 1.60
- Ternary Complex Signal (Δλ, nm) (Potassium glutamate 500 mM): 1.28 nm
- Binary Complex Signal (Δλ, nm) (Potassium glutamate 500 mM): 0.80 nm
SMILES: N[C@@H](CCC(=O)[O-])C(=O)[O-].[K+].[K+] [Potassium Glutamate, potassium glutamate]
